In patent publication US9802941B2, “Compounds and methods for inhibiting histone demethylases” (Gilead Sciences, Inc., priority 2014, dated 2017):
Read-outs that look alike come from different tables or passages of the source.

Key:
Assay type in all cases: biochemical
KDM6A (UTX) = target: T1, KDM6A (UTX) (Homo sapiens, UniProt O15550); test: Histone lysine demethylase AlphaLISA assay, KDM6A
T1 construct: KDM6A (UTX); BRIC; 919-1401; E. coli; host or cells: E. coli
Method in brief: (§1)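 Enzyme was preincubated in buffer (50 mM Hepes pH 7.4-8.0, 0.003-0.01% Tween-20, 0.1% BSA, 5 μM (NH4)2Fe(SO4)2), then added to compound in DMSO and incubated 10 minutes before substrate. After reaction at room temperature, acceptor and streptavidin donor beads were added and AlphaLISA signal read.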

KDM5B (PLU-1) = target: T2, KDM5B (PLU-1) (Homo sapiens, UniProt Q9UGL1); test: Histone lysine demethylase AlphaLISA assay, KDM5B
T2 construct: BRIC; 1-809; E. coli; host or cells: E. coli
T2 sequence (Q9UGL1 1-809): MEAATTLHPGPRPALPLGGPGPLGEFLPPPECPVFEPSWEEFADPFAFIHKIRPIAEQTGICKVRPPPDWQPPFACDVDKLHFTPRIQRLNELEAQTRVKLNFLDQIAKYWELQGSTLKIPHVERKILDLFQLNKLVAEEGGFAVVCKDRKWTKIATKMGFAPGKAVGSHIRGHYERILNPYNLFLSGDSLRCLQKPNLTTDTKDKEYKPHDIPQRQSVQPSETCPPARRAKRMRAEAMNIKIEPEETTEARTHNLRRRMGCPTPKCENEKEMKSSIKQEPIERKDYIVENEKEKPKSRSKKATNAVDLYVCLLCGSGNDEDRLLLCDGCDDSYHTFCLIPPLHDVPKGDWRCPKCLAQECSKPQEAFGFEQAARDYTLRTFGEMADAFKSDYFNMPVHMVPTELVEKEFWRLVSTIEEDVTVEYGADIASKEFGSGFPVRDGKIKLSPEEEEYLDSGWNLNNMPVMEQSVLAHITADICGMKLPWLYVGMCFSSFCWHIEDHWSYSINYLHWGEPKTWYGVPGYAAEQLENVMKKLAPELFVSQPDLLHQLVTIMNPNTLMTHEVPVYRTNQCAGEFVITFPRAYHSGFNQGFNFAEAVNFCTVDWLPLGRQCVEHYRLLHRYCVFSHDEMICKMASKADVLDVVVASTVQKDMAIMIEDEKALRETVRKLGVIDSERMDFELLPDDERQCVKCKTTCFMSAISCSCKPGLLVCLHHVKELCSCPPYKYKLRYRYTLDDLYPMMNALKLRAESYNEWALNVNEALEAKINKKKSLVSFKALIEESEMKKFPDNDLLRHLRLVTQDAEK
Method in brief: as §1

PHF8 (KDM7) = target: T3, PHF8 (KDM7) (Homo sapiens, UniProt Q9UPP1); test: Histone lysine demethylase AlphaLISA assay, PHF8
T3 construct: KDM7 (PHF8); BRIC; 1-1322; Bac
Method in brief: as §1

KDM4C (JMJD2C) = target: T4, KDM4C (JMJD2C) (Homo sapiens, UniProt Q9H3R0); test: Histone lysine demethylase AlphaLISA assay, KDM4C
T4 construct: KDM4C; BRIC, Denmark; 1-349; E. coli; host or cells: E. coli
T4 sequence (Q9H3R0 1-349): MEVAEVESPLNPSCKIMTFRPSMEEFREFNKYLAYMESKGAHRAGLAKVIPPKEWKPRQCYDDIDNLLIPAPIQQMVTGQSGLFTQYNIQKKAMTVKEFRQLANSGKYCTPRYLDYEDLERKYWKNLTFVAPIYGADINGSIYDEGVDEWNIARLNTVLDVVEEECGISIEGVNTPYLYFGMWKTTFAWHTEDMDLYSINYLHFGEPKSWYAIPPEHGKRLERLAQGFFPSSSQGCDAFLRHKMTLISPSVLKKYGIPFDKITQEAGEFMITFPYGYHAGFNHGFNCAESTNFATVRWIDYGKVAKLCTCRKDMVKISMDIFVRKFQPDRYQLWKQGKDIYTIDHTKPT
Method in brief: as §1

KDM2B (FBXL10) = target: T5, KDM2B (FBXL10) (Homo sapiens, UniProt Q8NHM5); test: Histone lysine demethylase AlphaLISA assay, KDM2B
T5 construct: KDM2B; BPS,; 1-650; Bac; purchased BPS Bioscience, US; host or cells: baculovirus system
T5 sequence (Q8NHM5 1-650): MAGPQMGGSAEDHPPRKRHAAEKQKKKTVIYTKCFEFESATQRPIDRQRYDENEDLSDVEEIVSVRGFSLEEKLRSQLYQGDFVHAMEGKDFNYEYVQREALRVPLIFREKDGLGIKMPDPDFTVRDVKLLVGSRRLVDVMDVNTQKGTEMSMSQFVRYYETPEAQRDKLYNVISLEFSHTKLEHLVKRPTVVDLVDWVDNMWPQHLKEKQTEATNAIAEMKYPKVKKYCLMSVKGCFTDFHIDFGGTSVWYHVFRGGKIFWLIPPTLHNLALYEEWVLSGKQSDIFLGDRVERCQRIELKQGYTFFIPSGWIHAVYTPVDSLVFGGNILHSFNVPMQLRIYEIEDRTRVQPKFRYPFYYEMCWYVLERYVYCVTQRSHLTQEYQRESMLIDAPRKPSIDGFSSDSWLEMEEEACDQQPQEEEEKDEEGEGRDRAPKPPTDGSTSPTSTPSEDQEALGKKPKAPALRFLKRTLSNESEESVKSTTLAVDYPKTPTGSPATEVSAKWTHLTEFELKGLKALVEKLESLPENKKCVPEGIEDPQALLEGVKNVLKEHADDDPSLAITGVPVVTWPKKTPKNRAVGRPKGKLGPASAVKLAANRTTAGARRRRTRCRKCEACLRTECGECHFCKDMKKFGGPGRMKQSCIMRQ
Method in brief: as §1

[1] = AlphaLISA assay, read-out: HDME Inhibition KDM6A (IC50)
[2] = AlphaLISA, in vitro, read-out: HDME Inhibition KDM6A
[3] = AlphaLISA assay, read-out: HDME Inhibition PHF8 (IC50)
[4] = AlphaLISA, in vitro, read-out: HDME Inhibition PHF8
[5] = AlphaLISA, in vitro, read-out: HDME Inhibition KDM4C
[6] = AlphaLISA assay, read-out: HDME Inhibition KDM2B (IC50)
[7] = AlphaLISA, in vitro, read-out: HDME Inhibition KDM2B
[8] = AlphaLISA assay, read-out: HDME Inhibition KDM5B (IC50)
[9] = AlphaLISA, in vitro, read-out: HDME Inhibition KDM5B
[10] = AlphaLISA assay, read-out: HDME Inhibition KDM4C (IC50)

T3 sequence (Q9UPP1 37-440 limits assumed): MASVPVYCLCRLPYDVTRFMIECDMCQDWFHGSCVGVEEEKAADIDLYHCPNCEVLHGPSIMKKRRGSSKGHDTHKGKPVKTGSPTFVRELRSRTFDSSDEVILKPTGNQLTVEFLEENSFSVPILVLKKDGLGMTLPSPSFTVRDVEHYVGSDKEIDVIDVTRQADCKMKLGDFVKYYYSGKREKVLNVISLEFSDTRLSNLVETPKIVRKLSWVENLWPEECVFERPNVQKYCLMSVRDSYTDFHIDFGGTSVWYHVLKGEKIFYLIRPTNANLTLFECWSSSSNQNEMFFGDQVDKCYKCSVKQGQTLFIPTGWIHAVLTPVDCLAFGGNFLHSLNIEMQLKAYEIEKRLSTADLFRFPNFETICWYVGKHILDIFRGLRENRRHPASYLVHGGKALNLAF
T1 sequence (O15550 919-1401): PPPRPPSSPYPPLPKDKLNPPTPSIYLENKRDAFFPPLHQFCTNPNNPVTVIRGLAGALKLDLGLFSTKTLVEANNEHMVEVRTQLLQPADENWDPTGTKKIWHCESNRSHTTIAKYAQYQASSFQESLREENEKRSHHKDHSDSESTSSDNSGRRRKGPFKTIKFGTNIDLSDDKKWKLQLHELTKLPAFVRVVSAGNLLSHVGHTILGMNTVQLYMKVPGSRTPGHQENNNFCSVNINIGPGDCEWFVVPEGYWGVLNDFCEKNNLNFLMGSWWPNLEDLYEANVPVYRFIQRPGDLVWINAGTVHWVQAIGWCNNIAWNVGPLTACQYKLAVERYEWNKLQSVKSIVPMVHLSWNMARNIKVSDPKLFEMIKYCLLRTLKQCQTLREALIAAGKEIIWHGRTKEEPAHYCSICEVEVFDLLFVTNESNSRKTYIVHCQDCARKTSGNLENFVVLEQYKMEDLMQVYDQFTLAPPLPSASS

IC50 (KDM6A (UTX); [1]) | IC50 (KDM6A (UTX); [2]) | IC50 (KDM5B (PLU-1)) | IC50 (PHF8 (KDM7); [3]) | IC50 (PHF8 (KDM7); [4]) | IC50 (KDM4C (JMJD2C); [5]) | IC50 (KDM2B (FBXL10); [6]) | IC50 (KDM2B (FBXL10); [7]) | IC50 (KDM5B (PLU-1); [8]) | IC50 (KDM5B (PLU-1); [9]) | IC50 (KDM4C (JMJD2C); [10]) | Structure (SMILES)
> 10 µM | > 10 µM | – | > 10 µM | > 10 µM | > 10 µM | – | 1.24 µM | > 10 µM | > 10 µM | > 10 µM | Cc1cc(C(=O)O)cc(CNCCc2ncccc2-c2ccsc2)n1 [Compound 34, 2-methyl-6-[({2-[3-(thiophen-3-yl)pyridin-2-yl]ethyl}amino)methyl]pyridine-4-carboxylic acid]
> 10 µM | > 10 µM | – | > 10 µM | > 10 µM | > 10 µM | > 10 µM | > 10 µM | > 10 µM | > 10 µM | > 10 µM | COc1ccc(CCn2ccnc2CNCc2cc(C(=O)O)cc(C)n2)cc1OC [Compound 22, 2-{[({1-[2-(3,4-dimethoxyphenyl)ethyl]-1H-imidazol-2-yl}methyl)amino]methyl}-6-methylpyridine-4-carboxylic acid]
> 10 µM | > 10 µM | – | > 10 µM | > 10 µM | > 10 µM | > 10 µM | > 10 µM | > 10 µM | > 10 µM | > 10 µM | Cc1cc(C(=O)O)cc(CN[C@H](CO)CC(C)C)n1 [Compound 23, 2-({[(2S)-1-hydroxy-4-methylpentan-2-yl]amino}methyl)-6-methylpyridine-4-carboxylic acid]
> 10 µM | > 10 µM | – | > 10 µM | > 10 µM | > 10 µM | – | 5.43 µM | > 10 µM | > 10 µM | > 10 µM | Cc1cc(C(=O)O)cc(CNCCc2ncccc2CCC(C)C)n1 [Compound 20, 2-methyl-6-[({2-[3-(3-methylbutyl)pyridin-2-yl]ethyl}amino)methyl]pyridine-4-carboxylic acid]

Second part, the compound before the results:

Structure (SMILES) | IC50 (KDM6A (UTX); [1]) | IC50 (KDM6A (UTX); [2]) | IC50 (KDM5B (PLU-1)) | IC50 (PHF8 (KDM7); [3]) | IC50 (PHF8 (KDM7); [4]) | IC50 (KDM4C (JMJD2C); [5]) | IC50 (KDM2B (FBXL10); [6]) | IC50 (KDM2B (FBXL10); [7]) | IC50 (KDM5B (PLU-1); [8]) | IC50 (KDM5B (PLU-1); [9]) | IC50 (KDM4C (JMJD2C); [10])
CCCC(C)c1cnc(CNCc2cc(C(=O)O)cc(C)n2)n1Cc1ccc(F)cc1 (centres unmarked) [Compound 10, 2-{[({1-[(4-fluorophenyl)methyl]-5-(pentan-2-yl)-1H-imidazole-2-yl}methyl)amino]methyl}-6-methylpyridine-4-carboxylic acid] | > 10 µM | > 10 µM | 1.28 µM | > 10 µM | > 10 µM | 1.37 µM | > 10 µM | > 10 µM | – | – | –
Cc1cc(C(=O)O)cc(CNCc2nccn2CCC(C)C)n1 [Compound 18, 2-methyl-6-[({[1-(3-methylbutyl)-1H-imidazol-2-yl]methyl}amino)methyl]pyridine-4-carboxylic acid] | > 10 µM | > 10 µM | – | – | 3.03 µM | > 10 µM | – | 3.93 µM | > 10 µM | > 10 µM | > 10 µM
COc1ccc(CCn2ccnc2CNCc2cc(C(=O)O)cc(C)n2)cc1 [Compound 17, 2-{[({1-[2-(4-methoxyphenyl)ethyl]-1H-imidazol-2-yl}methyl)amino]methyl}-6-methylpyridine-4-carboxylic acid] | > 10 µM | > 10 µM | – | > 10 µM | > 10 µM | > 10 µM | > 10 µM | > 10 µM | > 10 µM | > 10 µM | > 10 µM
Cc1cc(C(=O)O)cc(CNCc2nnc(Cc3cccs3)n2Cc2ccc(F)cc2)n1 [Compound 40, 2-{[({4-[(4-fluorophenyl)methyl]-5-(thiophen-2-ylmethyl)-4H-1,2,4-triazol-3-yl}methyl)amino]methyl}-6-methylpyridine-4-carboxylic acid] | > 10 µM | > 10 µM | – | – | 1.53 µM | > 10 µM | – | 0.599 µM | > 10 µM | > 10 µM | > 10 µM
Cc1cc(C(=O)O)cc(CNCc2nnc(Cc3ccccc3)n2Cc2ccc(F)cc2)n1 [Compound 29, 2-{[({5-benzyl-4-[(4-fluorophenyl)methyl]-4H-1,2,4-triazol-3-yl}methyl)amino]methyl}-6-methylpyridine-4-carboxylic acid] | > 10 µM | > 10 µM | – | – | 2.65 µM | > 10 µM | – | 1.14 µM | > 10 µM | > 10 µM | > 10 µM
CCCCCc1cccnc1CCNCc1cc(C(=O)O)cc(C)n1 [Compound 16, 2-methyl-6-({[2-(3-pentylpyridin-2-yl)ethyl]amino}methyl)pyridine-4-carboxylic acid] | > 9 µM | > 9 µM | – | – | 3.49 µM | > 10 µM | > 6.8 µM | > 6.8 µM | > 10 µM | > 10 µM | > 10 µM
